In patent publication US4272437A, “Antibacterial agents, and 4-thio azetidinone intermediates” (priority 1979, dated 1981):
≈ marks a conversion by molar mass, not a printed value. Where “and” joins values, the source holds several entries; their conditions need not be identical. Equal entries are not always repeated. Where two headings read alike, the source gives them in different places.

Experiments:
[1] = tested on: Klebsiella species A20468; experiment: MIC, tube dilution, Klebsiella species A20468; format: cell-based; details: Klebsiella species (K. pneumoniae) A20468, overnight 37° C.; for MIC: read-out: Minimum Inhibitory Concentration (M.I.C.)
Source text: (§1) Representative compounds of the present invention were subjected to in vitro antibiotic screening against a variety of microorganisms.

[2] = tested on: Ser. marcescens A-20019; experiment: MIC, tube dilution, Serratia marcescens A20019; format: cell-based; details: overnight 37° C.; for Minimum Inhibitory Concentration (M.I.C.): Serratia marcescens A20019; for MIC: Serratia marcescens, A20019, Serratia marcescens A20019, read-out: Minimum Inhibitory Concentration (M.I.C.)
Source text: as §1

[3] = tested on: Staph. aureus A-9537; experiment: MIC, tube dilution, Staphylococcus aureus A9537; format: cell-based; details: overnight 37° C., Nutrient Broth; for MIC: Staphylococcus aureus, A9537, Staph. aureus A9537, read-out: Minimum Inhibitory Concentration (M.I.C.)
Source text: as §1

[4] = tested on: Pr. vulgaris A-9716; experiment: MIC, tube dilution, Proteus vulgaris / Proteus mirabilis A9716; format: cell-based, Proteus vulgaris (name changed to Proteus mirabilis); details: overnight 37° C.; for MIC: Proteus vulgaris
Source text: as §1

[5] = tested on: Ent. cloacae A-9659; experiment: MIC, tube dilution, Enterobacter cloacae A9659; format: cell-based; details: overnight 37° C.; for Minimum Inhibitory Concentration (M.I.C.): Enterobacter cloacae A9659; for MIC: Enterobacter cloacae, A9659, Enterobacter cloacae A9659, read-out: Minimum Inhibitory Concentration (M.I.C.)
Source text: as §1

[6] = tested on: S. aureus A9537; experiment: In vivo protection of mice, lethal infection with S. aureus A9537; details: Staphylococcus aureus, A9537, im, read-out: PD50
Experimental: Representative compounds of the present invention were also tested in vivo in mice and their PD50 (dose of compound in mg/kg required to protect 50% of the treated mice against an otherwise lethal infection of a micro-organism) values determined with respect to the test organisms shown below.

[7] = tested on: Str. faecalis A-20688; experiment: MIC, tube dilution, Streptococcus faecalis A20688; format: cell-based; details: overnight 37° C.; for MIC: Enterococcus faecalis, A20688, Str. faecalis A20688, read-out: Minimum Inhibitory Concentration (M.I.C.)
Source text: as §1

[8] = tested on: E. coli A-20341-1; experiment: MIC, tube dilution, Escherichia coli A20341-1; format: cell-based
Source text: as §1

[9] = tested on: Staph. aureus (Meth-Res) A-15097; experiment: MIC, tube dilution, Staphylococcus aureus A15097 (Meth-Res); format: cell-based; details: overnight 37° C.; for MIC: Staphylococcus aureus
Source text: as §1

[10] = tested on: Pr. mirabilis A-9900; experiment: MIC, tube dilution, Proteus mirabilis A9900; format: cell-based; details: overnight 37° C.; for MIC: Proteus mirabilis, A9900, Proteus mirabilis A9900, read-out: Minimum Inhibitory Concentration (M.I.C.)
Source text: as §1

[11] = tested on: Pr. morganii A-15153; experiment: MIC, tube dilution, Proteus morganii A15153; format: cell-based; details: overnight 37° C.; for MIC: Morganella morganii, A15153, Proteus morganii A15153, read-out: Minimum Inhibitory Concentration (M.I.C.)
Source text: as §1

[12] = tested on: Staph. aureus (Pen-Res) A-9606; experiment: MIC, tube dilution, Staphylococcus aureus A9606 (Pen-Res); format: cell-based; details: overnight 37° C.; for MIC: Staphylococcus aureus
Source text: as §1

[13] = tested on: Providencia stuartii A21205; experiment: MIC, tube dilution, Providencia stuartii (Pr. rettgeri) A21205; format: cell-based; details: for MIC: Providencia stuartii
Source text: as §1

[14] = tested on: K. pneumoniae A-15130; experiment: MIC, tube dilution, Klebsiella pneumoniae A15130; format: cell-based; details: overnight 37° C.; for MIC: Klebsiella pneumoniae, A15130, K. pneumoniae A15130, read-out: Minimum Inhibitory Concentration (M.I.C.)
Source text: as §1

[15] = tested on: E. coli A-15119; experiment: MIC, tube dilution, Escherichia coli A15119; format: cell-based; details: overnight 37° C.; for MIC: Escherichia coli, A15119, E. coli A15119, read-out: Minimum Inhibitory Concentration (M.I.C.)
Source text: as §1

[16] = tested on: Staph. aureus A-9537 and 50% serum; experiment: MIC, tube dilution, Staph. aureus A9537 + 50% serum; format: cell-based, Staphylococcus aureus; details: overnight 37° C.; for MIC: Staphylococcus aureus, read-out: Minimum Inhibitory Concentration (M.I.C.)
Source text: as §1

[17] = tested on: Ent. cloacae A-9656; experiment: MIC, tube dilution, Enterobacter cloacae A9656; format: cell-based; details: overnight 37° C., read-out: Minimum Inhibitory Concentration (M.I.C.)
Source text: as §1

[18] = tested on: Ps. aeruginosa A-9843A; experiment: MIC, tube dilution, Pseudomonas aeruginosa A9843A; format: cell-based; details: Pseudomonas aeruginosa, A9843A, read-out: Minimum Inhibitory Concentration (M.I.C.), Pseudomonas aeruginosa A9843A; overnight 37° C.
Source text: as §1

[19] = tested on: Str. pyogenes A-9604; experiment: MIC, tube dilution, Streptococcus pyogenes A9604; format: cell-based; details: Streptococcus pyogenes, A9604, Str. pyogenes A9604; overnight 37° C., Nutrient Broth; read-out: Minimum Inhibitory Concentration (M.I.C.)
Source text: as §1

[20] = tested on: Ps. aeruginosa A-21213; experiment: MIC, tube dilution, Pseudomonas aeruginosa A21213; format: cell-based; details: Pseudomonas aeruginosa A21213; overnight 37° C.; read-out: Minimum Inhibitory Concentration (M.I.C.)
Source text: as §1

[21] = tested on: Str. pneumoniae A-9585; experiment: MIC, tube dilution, Streptococcus pneumoniae A9585; format: cell-based; details: Streptococcus pneumoniae, A9585, Str. pneumoniae A9585; overnight 37° C., Nutrient Broth; read-out: Minimum Inhibitory Concentration (M.I.C.)
Source text: as §1

[22] = A21205, read-out: Minimum Inhibitory Concentration (M.I.C.)
[23] = Enterobacter cloacae, A9656, Enterobacter cloacae A9656
[24] = A9716, Proteus vulgaris / Proteus mirabilis A9716, read-out: Minimum Inhibitory Concentration (M.I.C.)
[25] = Escherichia coli, A203411; E. coli A20341-1; overnight 37° C.; read-out: Minimum Inhibitory Concentration (M.I.C.)
[26] = read-out: Minimum Inhibitory Concentration (M.I.C.), Staph. aureus A15097 (Meth-Res)
[27] = Staph. aureus A9606 (Pen-Res), read-out: Minimum Inhibitory Concentration (M.I.C.)
[28] = A21205, Providencia stuartii (Pr. rettgeri) A21205, overnight 37° C., read-out: Minimum Inhibitory Concentration (M.I.C.)
[29] = Escherichia coli, A203411, E. coli A20341-1; overnight 37° C.; read-out: Minimum Inhibitory Concentration (M.I.C.)
[30] = Staph. aureus A15097 (Meth-Res), read-out: Minimum Inhibitory Concentration (M.I.C.)

Row | SMILES | MIC [1] | MIC [2] | MIC [3] | MIC ([17]; Enterobacter cloacae A9656) | MIC [17, 23] | MIC [4, 24] | MIC [5] | MIC [7] | MIC [18] | MIC [8, 25] | MIC [10] | MIC [11] | MIC [19] | MIC [12, 27] | MIC [13, 28] | MIC [20] | MIC [21] | MIC [14] | MIC [15] | MIC [16] | also measured
1 | O=C([O-])C1=C(Cc2ccccc2)S[C@@H]2CC(=O)N12.[Na+] [Example 13, Sodium 2-Benzylpenem-3-carboxylate] |  |  |  |  |  |  |  |  |  |  |  |  |  |  |  |  |  |  |  |  | Minimum Inhibitory Concentration (M.I.C.) [1]: 125 µg/mL; Minimum Inhibitory Concentration (M.I.C.) [2]: 32 µg/mL and 63 µg/mL; Minimum Inhibitory Concentration (M.I.C.) ([3]; Staph. aureus A9537): .13 µg/mL; Minimum Inhibitory Concentration (M.I.C.) ([4]; Proteus vulgaris / Proteus mirabilis A9716): 2 µg/mL; Minimum Inhibitory Concentration (M.I.C.) [5]: 63 µg/mL; ED50 [6]: 12.5 mg/kg; Minimum Inhibitory Concentration (M.I.C.) ([7]; Str. faecalis A20688): 32 µg/mL; Minimum Inhibitory Concentration (M.I.C.) ([8]; E. coli A20341-1; overnight 37° C.): 125 µg/mL; Minimum Inhibitory Concentration (M.I.C.) ([9]; Staph. aureus A15097 (Meth-Res)): 63 µg/mL; Minimum Inhibitory Concentration (M.I.C.) ([10]; Proteus mirabilis A9900): 2 µg/mL; Minimum Inhibitory Concentration (M.I.C.) ([11]; Proteus morganii A15153): 4 µg/mL; Minimum Inhibitory Concentration (M.I.C.) ([12]; Staph. aureus A9606 (Pen-Res)): 1 µg/mL; MIC [13, 22]: 4 mg/L; Minimum Inhibitory Concentration (M.I.C.) ([14]; K. pneumoniae A15130): 63 µg/mL; Minimum Inhibitory Concentration (M.I.C.) ([15]; E. coli A15119): 4 µg/mL; Minimum Inhibitory Concentration (M.I.C.) [16]: > 63 µg/mL
2 | CCCC1=C(C(=O)O)N2C(=O)C[C@H]2S1 [Preparation 15, 2-Propylpenem-3-carboxylic Acid] | > 125 mg/L | 63 mg/L (≈ 295 µM) | 1 mg/L (≈ 4.69 µM) | 125 mg/L (≈ 586 µM) | 63 mg/L (≈ 295 µM) | 16 mg/L (≈ 75 µM) | > 125 mg/L | 63 mg/L (≈ 295 µM) | > 125 mg/L | > 125 mg/L | 16 mg/L (≈ 75 µM) | 63 mg/L (≈ 295 µM) | 8 mg/L (≈ 37.5 µM) | 16 mg/L (≈ 75 µM) | 16 mg/L (≈ 75 µM) | > 125 mg/L | 1 mg/L (≈ 4.69 µM) | > 125 mg/L | 16 mg/L (≈ 75 µM) | > 63 mg/L | Minimum Inhibitory Concentration (M.I.C.) [2]: 125 µg/mL; Minimum Inhibitory Concentration (M.I.C.) [5]: 125 µg/mL; MIC [9, 26]: 125 mg/L (≈ 586 µM); Minimum Inhibitory Concentration (M.I.C.) ([13]; Providencia stuartii (Pr. rettgeri) A21205, overnight 37° C.): 32 µg/mL
3 | O=C(O)CCC1=C(C(=O)O)N2C(=O)CC2S1 (centres unmarked) [Preparation 11, Disodium 2-(2-carboxyethyl)penem-3-carboxylate] | > 125 mg/L | 4 mg/L | 16 mg/L |  | 63 mg/L | 4 mg/L | 63 mg/L | 125 mg/L | > 125 mg/L |  | 4 mg/L | 63 mg/L | 4 mg/L | 32 mg/L | 1 mg/L | > 125 mg/L | 0.13 mg/L | 63 mg/L | 16 mg/L | > 63 mg/L | MIC [8, 29]: 63 mg/L; MIC [9, 30]: 63 mg/L
4 | CSC1C(=O)N2C(C(=O)O)=C(C)SC12 (centres unmarked) [Example 5, Potassium 6-Thiomethyl-2-methylpenem-3-carboxylate] | > 125 mg/L | 63 mg/L | 4 mg/L | 125 mg/L |  | 32 mg/L | 125 mg/L | 125 mg/L | > 125 mg/L | 125 mg/L | 63 mg/L | 125 mg/L | 4 mg/L | 9 mg/L | 32 mg/L | > 125 mg/L | 0.5 mg/L | 63 mg/L | 63 mg/L | > 63 mg/L | MIC [9, 30]: 63 mg/L
5 | O=C(O)C1=C(Cc2cccs2)SC2CC(=O)N12 (centres unmarked) [Preparation 8, 2-(2'-Thienyl)methyl-penem-3-carboxylic Acid] | > 125 mg/L | 32 mg/L (≈ 120 µM) | < 0.008 mg/L |  | 16 mg/L (≈ 59.9 µM) | 1 mg/L (≈ 3.74 µM) | 16 mg/L (≈ 59.9 µM) | 32 mg/L (≈ 120 µM) | > 125 mg/L | > 125 mg/L | 0.5 mg/L (≈ 1.87 µM) | 1 mg/L (≈ 3.74 µM) | 0.03 mg/L (≈ 0.112 µM) | 4 mg/L (≈ 15 µM) | 1 mg/L (≈ 3.74 µM) | > 125 mg/L | 0.016 mg/L (≈ 0.0599 µM) | 32 mg/L (≈ 120 µM) | 1 mg/L (≈ 3.74 µM) | > 63 mg/L | MIC [9, 26]: > 125 mg/L
6 | COC1=C(C(=O)[O-])N2C(=O)C[C@H]2S1.[Na+] [Preparation 17, Sodium 2-Methoxypenem-3-carboxylate] | > 63 mg/L | > 63 mg/L | > 2 mg/L | > 63 mg/L |  |  | > 63 mg/L | > 63 mg/L | > 63 mg/L | > 63 mg/L | > 63 mg/L | > 63 mg/L | > 2 mg/L |  |  | > 63 mg/L | > 2 mg/L | > 63 mg/L | > 63 mg/L | > 32 mg/L | MIC ([4]; A9716, read-out: Minimum Inhibitory Concentration (M.I.C.), Proteus vulgaris / Proteus mirabilis A9716): > 63 mg/L; MIC [9, 26]: > 63 mg/L; MIC ([12]; read-out: Minimum Inhibitory Concentration (M.I.C.), Staph. aureus A9606 (Pen-Res)): > 63 mg/L; MIC [13, 22]: > 63 mg/L
7 | CC1=C(C(=O)O)N2C(=O)C(C(C)(C)O)C2S1 (centres unmarked) [Example 3, Potassium 6-(2'-Hydroxyisopropyl)-2-methylpenem-3-carboxylate] | > 125 mg/L | 63 mg/L | 2 mg/L | 125 mg/L |  | 32 mg/L | 125 mg/L | 125 mg/L | > 125 mg/L |  | 63 mg/L | 125 mg/L | 4 mg/L | 4 mg/L | 63 mg/L | > 125 mg/L | 1 mg/L | 125 mg/L | 63 mg/L | > 63 mg/L | MIC [8, 29]: 63 mg/L; MIC [9, 30]: 32 mg/L
